#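 These data come from cells grown in 96-well plates and exposed to compound for 48 hours at five concentrations. TGI is the concentration that stops growth completely.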
# What was measured:
# Test in all cases: NCI anticancer screen, dose series, 48 h
# SK-MEL-2 melanoma = system: SK-MEL-2 melanoma
# SK-MEL-28 melanoma = system: SK-MEL-28 melanoma
# NCI-H226 lung = system: NCI-H226 lung
# ACHN renal = system: ACHN renal
# CCRF-CEM leukemia = system: CCRF-CEM leukemia
# NCI-H460 lung = system: NCI-H460 lung
# U251 CNS = system: U251 CNS
# SF-295 CNS = system: SF-295 CNS
# BT-549 breast = system: BT-549 breast
# HOP-62 NSCLC = system: HOP-62 NSCLC
# M14 melanoma = system: M14 melanoma
# PC-3 prostate = system: PC-3 prostate
# SW-620 colon = system: SW-620 colon
# RPMI-8226 leukemia = system: RPMI-8226 leukemia
# MCF7 breast = system: MCF7 breast
# T-47D breast = system: T-47D breast
# MDA-MB-435 = system: MDA-MB-435
# SK-MEL-5 melanoma = system: SK-MEL-5 melanoma
# MDA-MB-231 breast = system: MDA-MB-231 breast
# UO-31 renal = system: UO-31 renal
Compound,TGI (SK-MEL-2 melanoma) [µM],TGI (SK-MEL-28 melanoma) [µM],TGI (NCI-H226 lung) [µM],TGI (ACHN renal) [µM],TGI (CCRF-CEM leukemia) [µM],TGI (NCI-H460 lung) [µM],TGI (U251 CNS) [µM],TGI (SF-295 CNS) [µM],TGI (BT-549 breast) [µM],TGI (HOP-62 NSCLC) [µM],TGI (M14 melanoma) [µM],TGI (PC-3 prostate) [µM],TGI (SW-620 colon) [µM],TGI (RPMI-8226 leukemia) [µM],TGI (MCF7 breast) [µM],TGI (T-47D breast) [µM],TGI (MDA-MB-435) [µM],TGI (SK-MEL-5 melanoma) [µM],TGI (MDA-MB-231 breast) [µM],TGI (UO-31 renal) [µM]
CN(NC(=O)c1ccco1)C1=NCCN1,> 100,> 100,> 100,> 100,> 100,> 100,> 100,> 100,> 100,> 100,> 100,> 100,> 100,> 100,> 100,> 100,> 100,> 100,> 100,> 100
Cc1ccc(CC(=O)Nc2ccc(NC(=O)/C=C/NC(=O)/C=C/c3ccc(-c4ccccc4)cc3)cc2C(=O)c2ccccc2)cc1,5.79,9,6.15,10.9,8.84,4.6,4.35,3.05,3.11,4.15,7.3,3.48,3.44,14.7,4.92,18,10.8,5.14,5.65,13.7
CC1=NN(c2nc(N)nc(CCl)n2)CC1,> 100,56.4,> 100,38.5,43.3,48.8,> 100,> 100,> 100,29.4,80.4,> 100,76.4,> 100,> 100,> 100,> 100,32.2,> 100,20.5
O=C(Nc1cc(C(=O)Nc2cccc(S(=O)(=O)O)c2)cc(C(=O)Nc2cccc(S(=O)(=O)O)c2)c1)c1cccc(C(=O)Nc2cc(C(=O)Nc3cccc(S(=O)(=O)O)c3)cc(C(=O)Nc3cccc(S(=O)(=O)O)c3)c2)c1,> 100,> 100,> 100,> 100,> 100,> 100,> 100,> 100,> 100,> 100,> 100,> 100,> 100,> 100,> 100,> 100,> 100,> 100,> 100,> 100
O=C(O)CNC(=O)CO/N=C1/C(c2c(O)[nH]c3ccccc23)=Nc2ccccc21,> 100,> 100,> 100,> 100,> 100,> 100,> 100,> 100,> 100,87.3,> 100,> 100,> 100,> 100,> 100,> 100,> 100,> 100,> 100,> 100
CCCCON1C[C@@H](O)C(O)[C@@H](O)C1 (stereo not given in full),> 100,> 100,> 100,> 100,> 100,> 100,> 100,> 100,> 100,> 100,> 100,> 100,> 100,> 100,> 100,> 100,> 100,> 100,> 100,> 100
COC1=C2CC(C)CC(OC)[C@@H](OC(=O)CCN)[C@H](C)/C=C(\C)C(OC(N)=O)C(OC)/C=C\C=C(/C)C(=O)NC(=CC1=O)C2=O (stereo not given in full),22.7,5.22,40.6,16,1.49,24.4,6.19,30.1,16.9,15.4,19.5,15.1,1.48,14.5,2.03,1.68,6.96,15.2,7.47,16.3
O=C(O)CN1CCNCCN(CP(=O)(O)O)CC1,> 100,> 100,> 100,> 100,> 100,> 100,> 100,> 100,> 100,> 100,> 100,> 100,> 100,> 100,> 100,> 100,> 100,> 66.5,> 100,> 100
COc1cc2cc(C(=O)N3CC(CCl)c4c3cc([N+](=O)[O-])c3ccccc43)[nH]c2c(OC)c1OC (stereo not given),> 100,> 100,> 100,> 100,> 100,> 63.8,> 100,97.7,> 100,> 100,> 100,> 100,> 100,> 100,> 100,> 100,> 100,> 100,> 100,> 100
CC1(c2ccc(F)cc2)CC(c2ccc(F)cc2)=C(C#N)C(=C(C#N)C#N)N1 (stereo not given),34.4,47.3,82.1,30.2,64.5,38.2,31.5,37.1,53,38.6,35.6,31.4,62.1,> 100,32.5,31.7,32,28.5,43.9,32
CCOc1ccc(N=NC2C(=O)N(C(=O)CC(=O)Nc3ccccc3OC)N=C2C)cc1 (stereo not given),> 58.7,> 100,> 100,> 100,> 100,> 42.8,> 63.4,> 53.8,> 48.4,> 49.5,> 100,> 100,52.9,> 100,> 100,> 100,4.12,> 100,> 51.7,> 100
C=C1C(=O)O[C@@H]2[C@H]1C[C@@H](O)[C@H](C)[C@@](O)(C(=O)/C=C/C)[C@H]2OC(=O)C(C)CC (stereo not given in full),84.1,24.2,> 100,9.89,0.229,> 100,26.6,> 100,13.3,49.2,9.03,51.5,6.65,18.2,24.9,71.8,11.1,21.3,19.6,4.06
COc1ccc(N(C)S(=O)(=O)c2ccccc2)cc1,> 100,> 100,> 100,> 100,> 100,> 100,> 100,> 100,> 100,> 100,> 100,> 100,> 100,> 100,> 100,> 100,> 100,> 100,> 100,> 100

# Reference: PubChem BioAssay (NCI)
